Experimental findings from ChEMBL document CHEMBL4257548, “Phenothiazine antioxidants increase mitochondrial biogenesis and frataxin levels in Friedreich's ataxia cells” (Medchemcomm, 2018) are described below.

For data set [1], the system named is GM15850. As to the kind of experiment: Cytotoxicity against human GM15850 cells at 0.25 to 2.5 uM after 24 to 48 hrs by live/dead staining-based flow cytometry. Format: cell-based. Particulars: gm15850, 2.5 µM. (In flow cytometry, cells or beads pass a laser one at a time.)
The subject of data set [2] is GM15850. As to the kind of experiment: Cytoprotection against DEM-induced toxicity in human GM15850 cells assessed as increase in cell viability pretreated for 16 hrs followed by DEM addition and measured after 5 hrs by live/dead staining based flow cytometry. In kind it is functional.
Data set [3] has as its system GM16216. As to the kind of experiment: Effect on mitochondrial membrane potential in human GM16216 cells assessed as intact mitochondrial membrane at 0.25 uM after 16 hrs by JC1 staining based flow cytometry (reference value: 87%). In kind it is functional.
Data set [4] relates to GM15850. As to the kind of experiment: Effect on mitochondrial membrane potential in human GM15850 cells assessed as intact mitochondrial membrane at 0.25 uM after 16 hrs by JC1 staining based flow cytometry (reference value: 87%). Format: functional.
Data set [5] has as its system GM16216. As to the kind of experiment: Cytoprotection against DEM-induced toxicity in human GM16216 cells assessed as increase in cell viability pretreated for 16 hrs followed by DEM addition and measured after 5 hrs by live/dead staining based flow cytometry. In kind it is functional.
The subject of data set [6] is GM16216. As to the kind of experiment: Induction of mitochondrial biogenesis in human GM16216 cells assessed as increase in ratio of COX1 to SDH-A protein levels at 50 to 250 nM after 24 to 48 hrs by ELISA. In kind it is functional, cell-based.
In data set [7] the test system is GM16216. As to the kind of experiment: Inhibition of ATP production in human GM16216 cells at 2.5 uM after 24 hrs by Vialight reagent based luminescence assay. In kind it is functional, cell-based.
Data set [8] has as its system GM16216. Nature of the data set: Effect on mitochondrial membrane potential in human GM16216 cells assessed as loss of mitochondrial membrane potential at 0.25 uM after 16 hrs by JC1 staining based flow cytometry (reference value: 13%). Format: functional.
Data set [9] concerns GM16216. As to the kind of experiment: Cytotoxicity against human GM16216 cells at 0.25 to 2.5 uM after 24 to 48 hrs by live/dead staining-based flow cytometry. Particulars: gm16216, 2.5 µM. In kind it is cell-based.
The test system of data set [10] is GM15850. As to the kind of experiment: Increase in ATP production in human GM15850 cells at 0.1 uM after 24 hrs by Vialight reagent based luminescence assay. Format: functional, cell-based.
The test system of data set [11] is GM16216. Nature of the data set: Effect on ATP production in human GM16216 cells at 0.5 uM after 24 hrs by Vialight reagent based luminescence assay. Format: functional, cell-based.
The subject of data set [12] is GM16216. Nature of the data set: Increase in ATP production in human GM16216 cells at 0.1 uM after 24 hrs by Vialight reagent based luminescence assay. In kind it is functional, cell-based.
Data set [13] relates to GM15850. As to the kind of experiment: Increase in frataxin expression in human GM15850 cells at 50 to 250 nM after 24 to 48 hrs by ELISA. In kind it is functional, cell-based.
Data set [14] concerns GM15850. Nature of the data set: Inhibition of ATP production in human GM15850 cells at 2.5 uM after 24 hrs by Vialight reagent based luminescence assay. In kind it is functional, cell-based.
In data set [15] the test system is GM15850. As to the kind of experiment: Induction of mitochondrial biogenesis in human GM15850 cells assessed as increase in ratio of COX1 to SDH-A protein levels at 50 to 250 nM after 24 to 48 hrs by ELISA. Format: functional, cell-based.
The test system of data set [16] is GM16216. Nature of the data set: Increase in frataxin expression in human GM16216 cells at 50 to 250 nM after 24 to 48 hrs by ELISA. In kind it is functional, cell-based. For orientation: An ELISA detects its analyte on a solid surface through an enzyme-linked reagent.
Data set [17] deals with GM15850. Nature of the data set: Effect on mitochondrial membrane potential in human GM15850 cells assessed as loss of mitochondrial membrane potential at 0.25 uM after 16 hrs by JC1 staining based flow cytometry (reference value: 13%). In kind it is functional.
In data set [18] the test system is GM15850. Nature of the data set: Effect on ATP production in human GM15850 cells at 0.5 uM after 24 hrs by Vialight reagent based luminescence assay. In kind it is functional, cell-based.
For data set [19], the system named is GM15850. As to the kind of experiment: Effect on ATP production in human GM15850 cells at 0.1 uM after 24 hrs by Vialight reagent based luminescence assay. Format: functional, cell-based.
Data set [20] relates to GM15850. As to the kind of experiment: Cytotoxicity against human GM15850 cells at 2.5 uM after 48 hrs by live/dead staining-based flow cytometry. Format: cell-based. Particulars: gm15850, 48 h.
For data set [21], the system named is GM16216. Nature of the data set: Effect on ATP production in human GM16216 cells at 0.1 uM after 24 hrs by Vialight reagent based luminescence assay. In kind it is functional, cell-based.
Data set [22] has as its system GM15850. Nature of the data set: Inhibition of ATP production in human GM15850 cells after 24 hrs by Vialight reagent based luminescence assay. In kind it is functional, cell-based.
Data set [23] deals with GM16216. As to the kind of experiment: Cytotoxicity against human GM16216 cells at 2.5 uM after 48 hrs by live/dead staining-based flow cytometry. Format: cell-based. Particulars: gm16216, 48 h.
Data set [24] concerns GM16216. Nature of the data set: Inhibition of ATP production in human GM16216 cells after 24 hrs by Vialight reagent based luminescence assay. Format: functional, cell-based.

Structures are written as SMILES. Activity calls are given as the source filed them. No cut-off for these calls is given here.

For `CCCCCCCCCCCc1cc2nc3ccc(N(C)C)cc3sc-2cc1=O`, the Activity result in [1] is “Non-Toxic”; in data set [2] it was “Dose-dependent effect”; in [3], 86%; in [4], 86%; in data set [5] it was “Dose-dependent effect”; in data set [8] it was 14%. The Activity result was “Non-Toxic” in [9] and 14% in data set [17]. The outcome in data set [6], in data set [10], in data set [12], in data set [13], in [15] and in data set [16] was Active. In addition, the inhibition entry in [7] and in data set [14] was “Active” throughout. For the same compound, the outcome in [11] and in data set [18] was inactive.

For `CCCCCc1cc2nc3ccc(N(C)C)cc3sc-2cc1=O`, the Activity entry in [2] is “Dose-dependent effect”; in data set [3] it was 84%; in data set [20], “Toxic”; in data set [4], 84%; in [5] it was “Dose-dependent effect”; in [8] it was 16%. Also, the Activity in data set [17] is listed as 16%; in data set [23] it was “Toxic”. For the same compound, the outcome in data set [19] and in [21] was inactive. Moreover, the inhibition result in [22] and in [24] was “Dose-dependent effect” each time.
